The nature of data set [1]: Liver microsome metabolic stability assay. The settings on record: mouse, microsomes. For orientation: Liver microsomes are a subcellular fraction often used to study metabolism.
Data set [2] deals with JFCR39 panel of 39 human tumor cell lines. The data set can be described thus: JFCR39 panel growth inhibition, panel statistics. As to conditions: Homo sapiens; JFCR39 panel; read-out: mean GI50 across all 39 cell lines. It counts as cell-based. On the procedure: JFCR39 drug discovery system was used to measure the growth inhibitory activities and identify the target of KTC1101. The JFCR39 panel consists of 39 cell lines seeded in 96-well plates. After 48-h treatment with KTC1101, cell growth was measured using the sulforhodamine B assay. […] The deviation of log GI50 for each cell line from the average log GI50 across the JFCR39 panel was plotted as a fingerprint. MG-MID (mean of Log GI50 values) represents the average log GI50 for all 39 cell lines. The most sensitive and least sensitive cell lines were identified by calculating the difference in their log GI50 values (Range) and the difference between the most sensitive cell line and the average GI50 on the JFCR39 panel (Delta). The fingerprint of KTC1101 was compared with the fingerprints of reference compounds in the database. The Pearson correlation coefficient (r) was calculated (n = 39).

Among the data in paper PMC10938783, “A novel pan-PI3K inhibitor KTC1101 synergizes with anti-PD-1 therapy by targeting tumor suppression and immune activation” (Molecular Cancer, 2024) are half-life, microsomal CLint and GI50 values, retold here.

Regarding `Cc1ncc2n1-c1ccc(Cl)cc1C(c1ccccc1F)=NC2` [Midazolam, reference compound], in data set [1], the half-life (in general, the time needed for the level to fall by half in the phase considered) at 1 µM turned out to be 1.24 min and the microsomal CLint (as a rule, the rate of metabolic loss divided by the concentration) at 1 µM is 1120 µL/min/mg.
For the compound `FC(F)c1nc2ccccc2n1-c1nc(N2CCOCC2)nc(N2CCOCC2)n1` [ZSTK474, reference compound], the GI50 – broadly, the concentration giving 50% growth inhibition – in data set [2] is 320 nM.
